Biological target: T1, hNLRP3 (Homo sapiens, UniProt Q96P20)
T1 construct: THP-1 cells were purchased from the American Type Culture Collection; host or cells: THP-1 cells, PMA-differentiated, stimulated with gramicidin
Experiment: IL-1β production in PMA-differentiated THP-1 cells stimulated with gramicidin (hTHP-1 assay)
Format: cell-based
Settings: read-out: NLRP3 Antagonist, hNLRP3 (THP-1, IL-1b) Normalized: GeoMean IC50
Experimental: Procedure 1: IL-1β Production in PMA-Differentiated THP-1 Cells Stimulated with Gramicidin.
THP-1 cells were purchased from the American Type Culture Collection and sub-cultured according to instructions from the supplier. […] Prior to the experiment, compounds were dissolved in dimethyl sulfoxide (DMSO) to generate a 30 mM stock. […] DMSO was backfilled in the plate to achieve a final DMSO assay concentration of 0.37%. The plate was then sealed and stored at room temperature until required.
THP-1 cells were treated with PMA (Phorbol 12-myristate 13-acetate) (20 ng/ml) for 16-18 hours. On the day of the experiment the media was removed and adherent cells were detached with trypsin for 5 minutes.
Procedure 2: IL-1β Production in PMA-Differentiated THP-1 Cells Stimulated with Gramicidin.
THP-1 cells were purchased from the American Type Culture Collection and sub-cultured according to instructions from the supplier. […] Prior to the experiment THP-1 were treated with PMA (Phorbol 12-myristate 13-acetate) (20 ng/ml) for 16-18 hours. Compounds were dissolved in dimethyl sulfoxide (DMSO) to generate a 30 mM stock. On the day of the experiment the media was removed and adherent cells were detached with trypsin for 5 minutes. […] Final DMSO concentration was at 0.37%. Cells were incubated with compounds for 1 hour and then stimulated with gramicidin (5 μM) (Enzo) for 2 hours. Plates were then centrifuged at 340 g for 5 min. Cell free supernatant (40 μL) was collected using a 96-channel PlateMaster (Gilson) and the production of IL-1β was evaluated by HTRF (cisbio).
1. Experimental procedure
1.2 Compound Preparation • Prepare the 3-fold serial dilution of the compounds with DMSO in a 384-well LDV Microplate using TECAN EVO system to generate the compound source plate with 10 concentrations. Top concentration is 30 mM. FIG. 5 depicts the layout of the microplate.
FIG. 5 depicts the layout of the plates: HC: 100 μM CRID3 (MCC950)+5 μM gramicidin LC: 5 μM Gramicidin.
1.5 IL-1β Detection • 1) Homogenize the 5× diluent #5 with a vortex and add 1 volume of stock solution in 4 volumes of distilled water. • 2) Thaw 20× stock solution of anti-IL1β-Cryptate-antibody and anti-IL1β XL-antibody. […] 2. Data Analysis: • 1.

T1 sequence (Q96P20 whole entry): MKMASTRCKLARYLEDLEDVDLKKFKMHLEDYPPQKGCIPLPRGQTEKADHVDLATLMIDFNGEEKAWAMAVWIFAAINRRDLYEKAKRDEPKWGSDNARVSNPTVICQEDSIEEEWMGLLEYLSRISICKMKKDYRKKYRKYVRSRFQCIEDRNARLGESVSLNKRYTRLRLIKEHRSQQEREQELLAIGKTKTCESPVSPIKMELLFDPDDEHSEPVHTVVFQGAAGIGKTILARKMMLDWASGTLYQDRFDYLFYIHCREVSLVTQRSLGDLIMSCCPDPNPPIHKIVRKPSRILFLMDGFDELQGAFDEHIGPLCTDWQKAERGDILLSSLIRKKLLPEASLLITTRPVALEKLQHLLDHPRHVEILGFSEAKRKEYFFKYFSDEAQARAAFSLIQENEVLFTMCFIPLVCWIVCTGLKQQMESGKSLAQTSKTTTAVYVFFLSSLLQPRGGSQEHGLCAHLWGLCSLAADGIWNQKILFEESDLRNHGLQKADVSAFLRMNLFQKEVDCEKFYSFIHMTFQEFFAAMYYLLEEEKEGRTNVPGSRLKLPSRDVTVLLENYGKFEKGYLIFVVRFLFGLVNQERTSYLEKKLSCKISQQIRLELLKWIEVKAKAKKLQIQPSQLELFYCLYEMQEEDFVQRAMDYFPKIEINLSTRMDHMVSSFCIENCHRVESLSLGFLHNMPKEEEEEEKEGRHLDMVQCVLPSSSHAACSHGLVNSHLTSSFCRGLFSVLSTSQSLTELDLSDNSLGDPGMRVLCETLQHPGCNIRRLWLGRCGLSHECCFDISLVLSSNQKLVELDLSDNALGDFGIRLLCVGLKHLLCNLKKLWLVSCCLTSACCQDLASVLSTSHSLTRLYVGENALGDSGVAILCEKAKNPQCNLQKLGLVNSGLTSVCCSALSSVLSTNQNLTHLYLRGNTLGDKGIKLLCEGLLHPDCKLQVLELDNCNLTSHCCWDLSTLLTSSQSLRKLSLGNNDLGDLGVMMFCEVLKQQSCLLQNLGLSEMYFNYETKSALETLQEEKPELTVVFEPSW

IC50 [µM] | SMILES
> 30 | CN1Cc2ccccc2S1(=O)=NC(=O)Nc1c2c(cc3c1CCC3)CCC2 (single isomer, unassigned) [Compound 107a]
0.2 to 1 | O=C(N=S1(=O)NC(=O)c2ccc(CN3CCC3)cc21)Nc1c2c(cc3c1CCC3)CCC2 (centres unmarked) [Compound 204, 1-(6-(azetidin-1-ylmethyl)-1-oxido-3-oxo-2,3-dihydro-1l4-benzo[d]isothiazol-1-ylidene)-3-(1,2,3,5,6,7-hexahydro-s-indacen-4-yl)urea]
5 to 30 | CN(C)Cc1ccc2c(c1)S(=O)(=NC(=O)Nc1c3c(cc4c1CCC4)CCC3)NC2 (centres unmarked) [Compound 133, 1-(6-((dimethylamino)methyl)-1-oxido-2,3-dihydro-1l4-benzo[d]isothiazol-1-ylidene)-3-(1,2,3,5,6,7-hexahydro-s-indacen-4-yl)urea]
5 to 30 | O=C(N=S1(=O)NC(=O)c2ccccc21)Nc1c2c(cc3c1CCC3)CCC2 (single isomer, unassigned) [Compound 129b, 3-[(1S or 1R)-1,3-dioxo-2,3-dihydro-1-^λ-6,2-benzothiazol-1-ylidene]-1-(1,2,3,5,6,7-hexahydro-s-indacen-4-yl)urea]
5 to 30 | CN(C)C(=O)c1ccc2c(c1)S(=O)(=NC(=O)Nc1c3c(cc4c1CCC4)CCC3)NC2=O (centres unmarked) [Compound 214, 1-(((1,2,3,5,6,7-hexahydro-s-indacen-4-yl)carbamoyl)imino)-N,N-dimethyl-3-oxo-2,3-dihydro-1H-1l4-benzo[d]isothiazole-6-carboxamide 1-oxide]
1 to 5 | CC(O)(CO)c1ccc2c(c1)S(=O)(=NC(=O)Nc1c3c(cc4c1CCC4)CCC3)NC2=O (single isomer, unassigned) [Compound 208a, 1-((1R or S)-6-(1,2-dihydroxypropan-2-yl)-1-oxido-3-oxo-2,3-dihydro-1l4-benzo[d]isothiazol-1-ylidene)-3-(1,2,3,5,6,7-hexahydro-s-indacen-4-yl)urea]
> 30 | O=C(N=S1(=O)NC(=O)c2ccc(-n3cccn3)cc21)Nc1c2c(cc3c1CCC3)CCC2 (single isomer, unassigned) [Compound 211b, (R or S)-1-(1,2,3,5,6,7-hexahydro-s-indacen-4-yl)-3-(1-oxido-3-oxo-6-(1H-pyrazol-1-yl)-2,3-dihydro-1l4-benzo[d]isothiazol-1-ylidene)urea]
0.2 to 1 | O=C(N=S1(=O)NC(=O)c2ccc(CO)cc21)Nc1c2c(cc3c1CCC3)CCC2 (centres unmarked) [Compound 216, 1-(1,2,3,5,6,7-hexahydro-s-indacen-4-yl)-3-(6-(hydroxymethyl)-1-oxido-3-oxo-2,3-dihydro-1l4-benzo[d]isothiazol-1-ylidene)urea]
5 to 30 | O=C(N=S1(=O)NC(=O)c2ccc(Br)cc21)Nc1c2c(cc3c1CCC3)CCC2 (single isomer, unassigned) [Compound 103b, (S or R)-1-(6-bromo-1-oxido-3-oxo-2,3-dihydro-1l4-benzo[d]isothiazol-1-ylidene)-3-(1,2,3,5,6,7-hexahydro-s-indacen-4-yl)urea]
0.2 to 1 | CC(C)(O)c1ccc2c(c1)C(=O)NS2(=O)=NC(=O)Nc1c2c(cc3c1CCC3)CCC2 (centres unmarked) [Compound 121, 1-(1,2,3,5,6,7-hexahydro-s-indacen-4-yl)-3-(5-(2-hydroxypropan-2-yl)-1-oxido-3-oxo-2,3-dihydro-1l4-benzo[d]isothiazol-1-ylidene)urea]
> 30 | CN1C(=O)c2ccccc2S1(=O)=NC(=O)Nc1c2c(cc3c1CCC3)CCC2 (centres unmarked) [Compound 116]
1 to 5 | O=C(N=S1(=O)NC(=O)c2ccccc21)Nc1c2c(cc3c1CCC3)CCC2 (racemic) [Compound 129, 3-(1,3-dioxo-2,3-dihydro-1-^λ-6,2-benzothiazol-1-ylidene)-1-(1,2,3,5,6,7-hexahydro-s-indacen-4-yl)urea]
0.2 to 1 | CC(C)(O)c1ccc2c(c1)C(=O)NS2(=O)=NC(=O)Nc1c2c(cc3c1CCC3)CCC2 (single isomer, unassigned) [Compound 121a, (R or S)-1-(1,2,3,5,6,7-hexahydro-s-indacen-4-yl)-3-(5-(2-hydroxypropan-2-yl)-1-oxido-3-oxo-2,3-dihydro-1l4-benzo[d]isothiazol-1-ylidene)urea]
> 30 | O=C(N=S1(=O)NC(=O)c2ccc(-n3cccn3)cc21)Nc1c2c(cc3c1CCC3)CCC2 (centres unmarked) [Compound 211, 1-(1,2,3,5,6,7-hexahydro-s-indacen-4-yl)-3-(1-oxido-3-oxo-6-(1H-pyrazol-1-yl)-2,3-dihydro-1l4-benzo[d]isothiazol-1-ylidene)urea]

Continued, molecule first:

SMILES | IC50 [µM]
CC(C)(O)c1ccc2c(c1)S(=O)(=NC(=O)Nc1c3c(nc(C4CC4)c1C1CC1)CCC3)NC2=O (single isomer, unassigned) [Compound 106a, 1(R or S)-1-(2,3-dicyclopropyl-6,7-dihydro-5H-cyclopenta[b]pyridin-4-yl)-3-(6-(2-hydroxypropan-2-yl)-1-oxido-3-oxo-2,3-dihydro-1l4-benzo[d]isothiazol-1-ylidene)urea] | 1 to 5
CC(C)c1cc(C(F)F)cc(C(C)C)c1CC(=O)N=S1(=O)NC(=O)c2ccccc21 (centres unmarked) [Compound 123a] | > 30
CC(C)(O)c1ccc2c(c1)S(=O)(=NC(=O)Nc1c3c(nc4c1CCC4)CCC3)NC2=O (single isomer, unassigned) [Compound 136, (S or R)-1-(1,2,3,5,6,7-hexahydrodicyclopenta[b,e]pyridin-8-yl)-3-(6-(2-hydroxypropan-2-yl)-1-oxido-3-oxo-2,3-dihydro-1l4-benzo[d]isothiazol-1-ylidene)urea] | 0.2 to 1
CC(C)(O)c1cc2c(s1)S(=O)(=NC(=O)Nc1c3c(cc4c1CCC4)CCC3)NC2=O (centres unmarked) [Compound 229, 1-(1,2,3,5,6,7-hexahydro-s-indacen-4-yl)-3-(5-(2-hydroxypropan-2-yl)-1-oxido-3-oxo-2,3-dihydro-1l4-thieno[3,2-d]isothiazol-1-ylidene)urea] | 5 to 30
Cc1c(C(F)(F)F)nc2c(c1NC(=O)N=S1(=O)NC(=O)c3ccc(C(C)(C)O)cc31)CCC2 (centres unmarked) [Compound 108, 1-(6-(2-hydroxypropan-2-yl)-1-oxido-3-oxo-2,3-dihydro-1l4-benzo[d]isothiazol-1-ylidene)-3-(3-methyl-2-(trifluoromethyl)-6,7-dihydro-5H-cyclopenta[b]pyridin-4-yl)urea] | 1 to 5
CC(C)c1cc2c(c(C(C)C)c1CC(=O)N=S1(=O)NC(=O)c3ccc(C(C)(C)O)cc31)COC2 (centres unmarked) [Compound 104, 2-(4,6-diisopropyl-1,3-dihydroisobenzofuran-5-yl)-N-(6-(2-hydroxypropan-2-yl)-1-oxido-3-oxo-2,3-dihydro-1l4-benzo[d]isothiazol-1-ylidene)acetamide] | > 30
CC(C)c1cc(C(F)F)cc(C(C)C)c1CC(=O)N=S1(=O)NC(=O)c2cc(CN(C)C)ccc21 (centres unmarked) [Compound 124, 2-[4-(difluoromethyl)-2,6-bis(propan-2-yl)phenyl]-N-{5-[(dimethylamino)methyl]-1,3-dioxo-2,3-dihydro-1$l6,2-benzothiazol-1-ylidene}acetamide] | > 30
CC(C)(O)c1ccc2c(c1)S(=O)(=NC(=O)Cc1cc3c(c4c1CCC4)CCC3)NC2=O (centres unmarked) [Compound 114, 2-(1,2,3,6,7,8-hexahydro-as-indacen-4-yl)-N-(6-(2-hydroxypropan-2-yl)-1-oxido-3-oxo-2,3-dihydro-1l4-benzo[d]isothiazol-1-ylidene)acetamide] | > 30
O=C(Nc1c2c(cc3c1CCC3)CCC2)NS1(=O)=NC(=O)c2ccc(Cl)cc21 (centres unmarked) [Compound 128, 3-(6-chloro-1,3-dioxo-2,3-dihydro-1-^λ-6,2-benzothiazol-1-ylidene)-1-(1,2,3,5,6,7-hexahydro-s-indacen-4-yl)urea] | 5 to 30
O=C(N=S1(=O)CC2(COC2)C(=O)N1)Nc1c2c(cc3c1CCC3)CCC2 (centres unmarked) [Compound 132, 1-(1,2,3,5,6,7-hexahydro-s-indacen-4-yl)-3-(6-oxido-8-oxo-2-oxa-6l6-thia-7-azaspiro[3.4]octan-6-ylidene)urea] | 1 to 5
CC(C)(O)c1ccc2c(c1)S(=O)(=NC(=O)Cc1c3c(cc4c1CCC4)CCC3)NC2=O (single isomer, unassigned) [Compound 115a, (S or R)-2-(1,2,3,5,6,7-hexahydro-s-indacen-4-yl)-N-(6-(2-hydroxypropan-2-yl)-1-oxido-3-oxo-2,3-dihydro-1l4-benzo[d]isothiazol-1-ylidene)acetamide] | 5 to 30
CC1(C)CS(=O)(=NC(=O)Nc2c3c(cc4c2CCC4)CCC3)NC1=O (centres unmarked) [Compound 102, 1-(4,4-dimethyl-1-oxido-3-oxo-1l6-isothiazolidin-1-ylidene)-3-(1,2,3,5,6,7-hexahydro-s-indacen-4-yl)urea] | 0.2 to 1

— US12134611B2, “Compounds and compositions for treating conditions associated with NLRP activity” (Novartis AG, priority 2018, dated 2024)
